# Experimental data reported in patent publication US20230383320A1, “METHOD FOR PRODUCING MONOUNSATURATED FATTY ACID HAVING 16 CARBON ATOMS” (SHIZUOKA PREFECTURAL UNIVERSITY CORPORATION, priority 2022, published 2023).
# Tests used:
# Staphylococcus aureus [1] = conditions: reported in Non Patent Literature 1; cited from earlier work
# Staphylococcus aureus [2] = conditions: 7-cis-hexadecenoic acid itself; cited from earlier work
# [3] = test system: Bifidobacterium sp. strain JCM7042; assay: Effect of components added to TOS liquid medium on bifidobacteria growth and 7-cis-C16:1 production; type: cell-based; conditions: component added to TOS liquid medium, amount per liter (0.1 to 10 g); compared to control without the component; 37° C.
# [4] = test system: Bifidobacterium sp. strain JCM7042; assay: L-cysteine concentration in MRS liquid medium, production of 7-cis-hexadecenoic acid; type: cell-based; conditions: 5.0 g/L in MRS liquid medium
# Protocol: MRS media with various amounts of L-cysteine added were prepared to investigate their effect on the production of 7-cis-hexadecenoic acid by bifidobacteria. Specifically, the test was performed as follows. Bifidobacterium sp. strain JCM7042 (strain JCM7042) was used as the Bifidobacterium. L-cysteine hydrochloride monohydrate was added at 0.001 g/L, 0.01 g/L, 0.1 g/L, 0.5 g/L, 1.0 g/L, and 5.0 g/L to the MRS liquid medium with the composition shown in Table 1 to prepare L-cysteine-containing MRS liquid media. These MRS liquid media with L-cysteine and the control MRS liquid medium (without added L-cysteine) were cultured in the same manner as in Example 1. Using the same methods and conditions as in Example 1, the 7-cis-hexadecenoic acid in each culture solution was quantified by gas chromatography (GC) analysis.
# [5] = test system: Staphylococcus epidermidis; conditions: reported in Non Patent Literature 1; cited from earlier work
Molecule,7-cis-C16:1 Production [3],Bifidobacteria Growth [3],other results
CCCCCCCC/C=C\CCCCCC(=O)O [7-cis-hexadecenoic acid],–,–,selective antibacterial activity (S. aureus versus S. epidermidis) (Staphylococcus aureus [1]): selective antibacterial activity similar to sapienic acid; MIC against Staphylococcus aureus (Staphylococcus aureus [2]): about 3 μg/mL
O=C([O-])[O-].[Ca+2] [Calcium Carbonate],Fair,Excellent,–
Cl.N[C@@H](CS)C(=O)O.O [L-Cysteine Hydrochloride (1-hydrate)],Excellent,Excellent,production of 7-cis-hexadecenoic acid [4]: greatly inhibited
"CCCCCCCCCCCC(=O)O [Lauric Acid (free form), Lauric Acid]",Poor,Poor,–
CCCCCCCCCCCC(=O)OC [Lauric Acid Methyl Ester],Good,Good,–
"CCCCCCCCCCCCCC(=O)O [Myristic Acid (free form), Myristic Acid]",Poor,Poor,–
CCCCCCCCCCCCCC(=O)OC [Myristic Acid Methyl Ester],Poor,Poor,–
"CCCCCCCC/C=C\CCCCCCCC(=O)O [Oleic Acid (free form), Oleic Acid]",Poor,Fair,–
CCCCCCCC/C=C\CCCCCCCC(=O)OC [Oleic Acid Methyl Ester],Good,Excellent,–
O=C(O)CC(=O)C(=O)O [Oxaloacetic Acid],Poor,Good,–
"CCCCCCCCCCCCCCCC(=O)O [Palmitic Acid (free form), Palmitic Acid]",Poor,Poor,–
CCCCCCCCCCCCCCCC(=O)OC [Palmitic Acid Methyl Ester],Poor,Poor,–
O=C([O-])[O-].[K+].[K+] [Potassium Carbonate],Poor,Poor,–
O=C([O-])O.[K+] [Potassium Hydrogen Carbonate],Fair,Poor,–
O=C([O-])[O-].[Na+].[Na+] [Sodium Carbonate],Poor,Poor,–
O=C([O-])O.[Na+] [Sodium Hydrogen Carbonate],Poor,Poor,–
CCCCCC/C=C\CCCCCCCC(=O)O [palmitoleic acid],–,–,selective antibacterial activity (S. aureus versus S. epidermidis) (Staphylococcus aureus [1]): selective antibacterial activity similar to sapienic acid
CCCCCCCCC/C=C\CCCCC(=O)O [sapienic acid],–,–,antibacterial activity against Staphylococcus aureus (Staphylococcus aureus [1]): strong antibacterial activity; antibacterial activity against Staphylococcus epidermidis [5]: not against Staphylococcus epidermidis
Anisidine,Good,Good,–
Polysorbate 80,Poor,Good,–
Tergitol NP40,Good,Good,–
Triton X-100,Poor,Poor,–
